Measured values as given in patent publication US4581359A, “Pharmacological treatments with N-7-substituted derivatives of theophylline” (priority 1984, dated 1986).
Values joined by “and” are separate entries in the source; they are usually repeats but may differ in a detail not shown here. Identical values can stand only once. Like-named read-outs stand apart in the source and are kept apart here.

Tests used:
[1] = in vivo
Description: One horse was administered acetyl promazine thiamyol sodium, quaifensin, and halothane to produce general anesthesia. Dyphylline (20 mg/kg) was given as an intravenous bolus injection in less than 15 seconds and aminophylline (10 mg/kg) was given as an infusion over about 20 minutes. Plasma and cerebral spinal fluid were collected and assayed by high pressure liquid chromatography for both dyphylline and theophylline.

[2] = cited from earlier work
[3] = Dyphylline 20 min intravenous infusion in two healthy male subjects: pharmacokinetics, blood pressure, pulse (Example 2); type: in vivo, human; details: bolus injection
[4] = as above; type: in vivo, human; details: for V2, volume of peripheral compartment: Vd - V1; for Css, steady state: infusion rate/V1 Ke1, predicted only; for half-life / k el / Vd: human, in vivo, iv, 1000 mg; for half-life: 0.693/β
Description: 1000 mg of the drug dyphylline was infused over twenty minutes in two heathy male patients to determine the volume of distribution of the central compartment.
A physician evaluated two male volunteer subjects for their drug and disease histories. […] The subjects fasted from 10:00 p.m. before dosing at 7:30 a.m. the following day until four hours post dosing, after which food (except xanthines; i.e. chocolate, tea, coffee) and beverages were allowed ad lib.
A dose of 1,000 mg of dyphylline (Neothylline®) diluted in normal saline (0.9 percent) was administered at a rate of 50 mg/min via a constant infusion pump for twenty minutes. Blood pressure and electrocardiogram readings were monitored by a physician.
Whole blood (7 cc) was collected from each subject at time zero just prior to dosing and at 10, 15, 20, 30, 40 minutes and 1.0, 1.5, 2.0, 3.0, 4.0, 5.0, 6.0, 7.0, 8.0, 12.0, and 16.0 hours post dosing with a syringe. The heparin lock was cleared of all heparin solution and the lock filled with subject blood by using a disposable syringe prior to sampling. Each sample was then collected in a new disposable syringe and immediately transferred to a heparinized vacuum tube. After each sampling, the heparin lock was flushed and filled with heparin (10 u/ml). Once samples had been transferred to vacuum tubes, they were inverted several times, then stored in crushed ice until centrifuged and the plasma collected. Plasma samples were then frozen until assayed.
Plasma and urine samples were assayed by high-pressure liquid chromatography (HPLC) as reported by Gisclon, in the article mentioned above.
Plasma samples were prepared for assay by mixing 0.5 ml of plasma with 0.5 ml of acetonitrile containing β-hydroxyethyltheophylline (40 mcg/ml) as internal standard, and vortexed 15 seconds. The plasma sample with its protein precipitate was then centrifuged for 15 minutes at 2800 rpm and 5-40 μl injected into the HPLC.
FIGS. 5 and 6 show dyphylline plasma concentration vs. time curves for the subjects. Solid circles are the data points which were obtained by duplicate analysis of each sample by different analysts and the solid line represents the predicted values obtained after fitting the data with an Autoan computer package which uses CSTRIP and NONLIN (John G. Wagner, Fundamentals of Clinical Pharmacokinetics, Drug Intelligence Publications,Inc., Hamilton, Ill., 1975). This program determined that the data from time zero to 480 min. (8 hr) for subject one and 420 min. (7 hr) for subject two were compatible with a two compartment open model with zero order infusion for 20 minutes and first order elimination from the central compartment only. The fit to the data was quite good with r^2 =0.996 for subject one and 0.997 for subject two. The average percent deviation for the predicted lines from the data points was 7.7 percent and the estimated concentrations averaged 98.9 percent of the observed concentrations.

clinical = type: in vivo; details: for Cmax: iv, 1000 mg, after 20-minute intravenous infusion of 1000 mg
Description: To confirm the data shown in Table XI, dyphylline, 1000 mg, was administered to twelve healthy male volunteers as a zero-order infusion (50 mg/min) or as three conventional tablets (2×400 mg, 1×200 mg).

Cn1c(=O)c2c(ncn2CC(O)CO)n(C)c1=O (stereo not drawn) [dyphylline, dihydroxypropyl theophylline]
penetration into cerebral spinal fluid [1]: penetrate into cerebral spinal fluid | average volume of distribution ([2]; 25 mg/kg): 1.01 L/kg | toxicity at 30 to 50 mcg/ml ([2]; rabbit, in vivo): not toxic | half-time of clearance from the central compartment [3]: four to nine | adverse side effects ([4]; 1000 mg over 20 min, two subjects): No adverse side effects were observed or reported | Blood pressure, diastolic, Subject Two ([4]; 10 M, 15 M, 20 M (end), 30 M, 40 M, 60 M, 90 M, predose 125/80): 80 mm Hg and 85 mm Hg and 75 mm Hg | K12 ([4]; Subject 1, 1000 mg over 20 min): 1.94 h⁻¹ | K21 ([4]; Subject 1, 1000 mg over 20 min): 2.50 h⁻¹ | α ([4]; Subject 1, 1000 mg over 20 min): 4.73 h⁻¹ | V2, volume of peripheral compartment ([4]; Subject 1): 30.28 L | Css, steady state ([4]; Subject 1): 142.56 µg/mL | K12 ([4]; Subject 2, 1000 mg over 20 min): 4.02 h⁻¹ | K21 ([4]; Subject 2, 1000 mg over 20 min): 4.39 h⁻¹ | α ([4]; Subject 2, 1000 mg over 20 min): 8.83 h⁻¹ | V2, volume of peripheral compartment ([4]; Subject 2): 25.45 L | Css, steady state ([4]; Subject 2): 142.13 µg/mL | blood pressure and pulse rate ([4]; during the study): essentially unchanged | half-life ([4]; Subject 1): 127 min | k el ([4]; Subject 1, 1000 mg over 20 min, read-out: Ke1 (converted)): 0.000172 s⁻¹ | k el ([4]; Subject 1, 1000 mg over 20 min, read-out: β (converted)): 9.17e-05 s⁻¹ | Vd ([4]; Subject 1, read-out: V1): 33.9 L | Vd ([4]; Subject 1, read-out: V3 (footnote: Vd, total volume of distribution)): 64.2 L | half-life ([4]; Subject 2): 99.6 min | k el ([4]; Subject 2, 1000 mg over 20 min, read-out: Ke1 (converted)): 0.000233 s⁻¹ | k el ([4]; Subject 2, 1000 mg over 20 min, read-out: β (converted)): 0.000117 s⁻¹ | Vd ([4]; Subject 2, read-out: V1): 25.1 L | Vd ([4]; Subject 2, read-out: V3 (footnote: Vd, total volume of distribution)): 50.6 L | Vd ([4]; two subjects, range, read-out: volume of the central compartment per kg): 0.35 to 0.47 L/kg | Vd ([4]; two subjects, read-out: total volume of distribution, average): ~0.8 L/kg | Vd ([4]; two subjects, read-out: volume of the central compartment): 25 to 34 L | Vd ([4]; two subjects, read-out: volume of the central compartment, average): ~0.41 L/kg | drug related toxicities (clinical; human, in vivo): No subjects reported any drug related toxicities | Cmax (clinical; human, plasma, read-out: Maximum plasma concentration, average): 30100 ng/mL | Cmax (clinical; human, plasma, read-out: Maximum plasma concentration, range): 18400 to 46800 ng/mL | Vd (clinical; human, plasma, 1000 mg IV, twelve volunteers, standard deviation 0.08, read-out: average total volume of distribution, IV): 0.78 L/kg | difference between predose and peak drug effects on blood pressure and heart rate (clinical; α=0.05 level): not statistically significant
